This note sets out measurements from EP0125052B1, “Dopaminergic carbostyrils and a process for preparing them” (SMITHKLINE BECKMAN CORPORATION, priority 1983, dated 1984).

One assay addresses D2 (Oryctolagus cuniculus, UniProt G1T1Q0). Description: cell-based.
A further assay concerns anesthetized dog. Description: anesthetized dog protocol (renal dog screen) measuring renal and cardiovascular parameters. It counts as in vivo. More on the design: decreased heart rate / arterial blood pressure: dose or concentration left out as unconfirmed.
For assay [1], the system named is spontaneously hypertensive rat (SHR). Description: spontaneously hypertensive rat (SHR) protocol. It counts as in vivo.

By EC50 is commonly meant the concentration that produces a half-maximal response.

D2, sequence (G1T1Q0 1-443): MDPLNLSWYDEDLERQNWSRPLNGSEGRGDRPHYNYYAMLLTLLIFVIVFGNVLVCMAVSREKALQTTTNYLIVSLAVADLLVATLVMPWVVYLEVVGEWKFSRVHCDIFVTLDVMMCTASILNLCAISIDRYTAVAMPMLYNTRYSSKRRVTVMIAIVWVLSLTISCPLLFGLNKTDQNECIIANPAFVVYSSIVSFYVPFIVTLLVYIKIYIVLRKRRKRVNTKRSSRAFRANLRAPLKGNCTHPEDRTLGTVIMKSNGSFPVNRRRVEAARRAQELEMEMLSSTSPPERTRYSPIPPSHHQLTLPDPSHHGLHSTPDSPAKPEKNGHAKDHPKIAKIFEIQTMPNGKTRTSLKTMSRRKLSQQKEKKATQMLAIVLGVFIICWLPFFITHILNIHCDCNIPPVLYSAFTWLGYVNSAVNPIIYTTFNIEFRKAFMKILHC
Excerpt for anesthetized dog: The prior art dopaminergic agent, dopamine, is used as a positive control.

`CCCN(CCc1ccc(O)cc1)CCc1ccc(O)c2[nH]c(=O)ccc12` [5-[N-n-propyl-N-(p-hydroxyphenethyl)aminoethyl)-8-hydroxycarbostyril] registered a concentration for a half-maximal effect (EC50) on D2 of 12 nM.
For the molecule `Cl.NCCc1ccc(O)c2[nH]c(=O)ccc12` [5-aminoethyl-8-hydroxycarbostyril hydrochloride], in the assay with anesthetized dog (Canis lupus familiaris, read-out: RVR-ED15), the ED15 came to 1.8 µg/kg. In the assay with anesthetized dog (by infusion, renal dog screen), the arterial blood pressure was -8% and the decreased heart rate amounted to 22.5%. The systolic blood pressure entry in assay [1] (SHR, 25 mg/kg intraperitoneally administered) is reported as “lowered systolic blood pressure”.
As to `CCCN(CCC)CCc1ccc(O)c2[nH]c(=O)ccc12` [5-di-n-propylaminoethyl-8-hydroxycarbostyril], in the assay on anesthetized dog (dog protocol, 3 and 30 pg/kg/min infusion), the renal blood flow entry is listed as “increased renal blood flow”. In addition, in assay [1] (rat test, 12.5, 25 and 50 mg/kg, i.p.), the systolic hypertension entry is recorded as “decreased systolic hypertension”.
